From patent publication US20140094413A1, “HEPATOCYTE GROWTH FACTOR (HGF) MIMICS AS THERAPEUTIC AGENTS” (WASHINGTON STATE UNIVERSITY, priority 2012, published 2014)
Where “and” joins values, the source holds several entries; their conditions need not be identical. Equal values may be shown once. Entries after “also recorded” stand apart in the source; their conditions may differ. Where a SMILES comes first, the peptide text is derived from it. [ ]: non-standard residue; d: D form. The star is where a group is joined. Hexanoyl = CCCCCC(=O)*; Ahx = NCCCCCC(=O)O

How the values were obtained:
hippocampal neurons = assay: Immunocytochemistry: correlation of spines with synaptic markers; type: cell-based, rat; conditions: HGF 10 ng/ml
6-OHDA lesioned rats = assay: Unilateral 6-OHDA substantia nigra lesion model; type: in vivo, rat
Description: FIG. 41. Dihexa restores performance in the rope hang test. Two weeks after producing a unilateral lesion with 6-OHDA in the substantia nigra, rats were treated with either 0.5 mg/kg of Dihexa or equivalent volumes of the vehicle ip.
FIG. 42A-C. Dihexa restored normal walking in the gait analysis test. Two weeks after producing a unilateral lesion with 6-OHDA in the substantia nigra, rats were treated with either 0.5 mg/kg of Dihexa or equivalent volumes of the vehicle ip. […] A, animal foot prints; B, left stride length; C, right stride length. Note that the dragging of the left hind leg observed in the untreated lesioned rats was absent from the treated group.
FIG. 43. Dihexa restores tyrosine hyroxlase staining, which is indicative of the presence of dopaminiergic neurons in the substantia nigra (SN). Two weeks after the induction of an unilateral 6-OHDA lesion, rats were treated with either 0.5 mg/kg Dihexa or an equivalent volume of vehicle ip. for 34 days.

scopolamine treated rats = assay: Morris water maze, scopolamine amnesia model; conditions: scopolamine ICV
Description: Male Sprague-Dawley rats (Taconic derived) weighing 390-450 g were maintained with free access to water and food (Harland Tekland F6 rodent diet, Madison, Wis.) except the night prior to surgery when food was removed. Each animal was anesthetized with Ketamine hydrochloride plus Xylazine (100 and 2 mg/kg im. respectively; Phoenix Scientific; St. Joseph, Mo., and Moby; Shawnee, Kans.). […] The guide cannula measured 2.5 cm in overall length and was prepared with a heat bulge placed 2.5 mm from its beveled tip, thus acting as a stop to control the depth of penetration. Once in position, the cannula was secured to the skull with two stainless-steel screws and dental cement. Post-operatively the animals were housed individually in an American Accreditation for Laboratory Animal Care-approved vivarium maintained at 22±1° C. on a 12-h alternating light/dark cycle initiated at 06:00 h. All animals were hand gentled for 5 min per day during the 5-6 days of post-surgical recovery. Histological verification of cannula placement was accomplished by the injection of 5 μl fast-green dye via the guide cannula following the completion of behavioral testing.
A black circular platform (diameter: 12 cm; height: 24 cm) was placed 30 cm from the wall and submerged 2 cm below the water surface. The maze was operationally sectioned into four equal quadrants designated NW, NE, SW, and SE. For each rat the location of the platform was randomly assigned to one of the quadrants and remained fixed throughout the duration of training. Entry points were at the quadrant corners (i.e. N, S, E, and W) and were pseudo-randomly assigned such that each trial began at a different entry point than the preceding trial. Three of the four testing room walls were covered with extra-maze spatial cues consisting of different shapes (circles, squares, triangles) and colors. The swimming path of the animals was recorded using a computerized video tracking system (Chromotrack; San Diego Instruments, CA). […] Swim speed was determined from these values.
Each member of the treatment groups in the scopolamine studies received an icy injection of scopolamine hydrobromide (70 nmol in 2 μl aCSF over a duration of 20 s) 30 min prior to testing followed by Dihexa 10 min prior to testing. Control groups received scopolamine or aCSF 20 min prior to testing followed by aCSF 10 min prior testing. […] The rats in the aged rat study on received Dihexa of aCSF (control group). Briefly, acquisition trials were conducted on 8 consecutive days with 5 trials/day. On the first day of training the animal was placed on the platform for 30 s prior to the first trial. Trials commenced with the placement of the rat facing the wall of the maze at one of the assigned entry points. […] Once the animal located the platform it was permitted a 30 s rest period on the platform. […] The next trial commenced immediately following the rest period.
Following day 8 of acquisition training, one additional trial was conducted during which the platform was removed (probe trial). […] Total time spent within the target quadrant where the platform had been located during acquisition and the number of crossings of that quadrant was recorded.

MDCK cells = assay: Augmentation of HGF-dependent cell scattering in MDCK cells; type: cell-based, canine; conditions: with HGF, Dihexa 10^−10 M to 10^−14M, four days
Description: augmentation of HGF-dependent c-Met phosphorylation in HEK293 cells, or 2) augmentation of HGF-dependent cell scattering in MDCK cells. All the compounds in Family one were tested using the c-Met phosphorylation assay. […]
MDCK cells were grown to 100% confluency on the coverslips in six-well plates and washed twice with PBS. The confluent coverslips were then aseptically transferred to new six well plates containing 900 μl serum free DMEM. Norleual, Hinge peptide, and/or HGF (2.5 ng/ml) were added to appropriate wells. Control wells received PBS vehicle. […] Media was removed and cells were fixed with methanol. Cells were stained with Diff-Quik Wright-Giemsa (Dade-Behring, Newark, Del.) and digital images were taken. Coverslips were removed with forceps and more digital images were captured. Pixel quantification of images was achieved using Image J and statistics were performed using Prism 5 and InStat v.3.05.
MDCK cells were grown to 100% confluency on the coverslips in six-well plates and washed twice with PBS. The confluent coverslips were then aseptically transferred to new six well plates containing 900 μl serum free DMEM. Norleual, Hinge peptide, and/or HGF (20 ng/ml) were added to appropriate wells. Control wells received PBS vehicle. […] Pixel quantification of images was achieved using Image J and statistics were performed using Prism 5 and InStat v.3.05.

[1] = Phase I metabolism of Dihexa; type: in vitro ADME
[2] = Dihexa plasma levels after IV infusion; type: in vivo, rat
Description: FIG. 46. Dihexa plasma levels after intravascular (IV) infusion. Dihexa was administered to adult male Sprague Dawley rats at 10 mg/kg. Plasma sample were collected and analyzed by HPLC-MS. Plasma data were modeled by non-compartmental analysis using WinNonlin® software.

rats = assay: Morris water maze with i.c.v. Dihexa and HGF antagonist Hinge; type: in vivo, rat; conditions: scopolamine treated rats
[3] = system: Dissociated hippocampal neurons; assay: Neuroprotection from growth factor deprivation; type: cell-based; conditions: starved 72 hrs +/−HGF 5 ng/ml; Dihexa 10^−10 M and 10^−8M
Description: FIG. 39. […] Dissociated hippocampal neurons were starved for 72 hrs+/−HGF at sub-threshold concentrations 5 ng/ml and or Dihexa at 2 different concentrations 10^−10 M and 10^−8M. (**p<0.001,***p<0.0001; Mean+/−SEM).

[4] = system: CA1 neurons in coronal slices of rat hippocampus; assay: Hippocampal long-term potentiation with theta burst stimulation; type: cell-based; conditions: Dihexa 1 μM applied 10 minutes prior to TBS
Description: FIG. 45. Effect of Dihexa (Hex) on hippocampal long-term potentiation (LTP) generated with theta burst (TBS) stimulation. LTP was monitored at CA1 neurons in coronal slices of rat hippocampus. Dihexa (1 μM) was applied 10 minutes prior to TBS. 1N=4. Dihexa application augmented LTP.

human HGF = target: T1, human HGF (Homo sapiens, UniProt P14210); assay: HGF dimerization; type: biochemical; conditions: 30 minutes in the presence of heparin; N=6
T1 construct: purchased R&D Systems (Minneapolis, Minn.)
T1 sequence (P14210 32-728): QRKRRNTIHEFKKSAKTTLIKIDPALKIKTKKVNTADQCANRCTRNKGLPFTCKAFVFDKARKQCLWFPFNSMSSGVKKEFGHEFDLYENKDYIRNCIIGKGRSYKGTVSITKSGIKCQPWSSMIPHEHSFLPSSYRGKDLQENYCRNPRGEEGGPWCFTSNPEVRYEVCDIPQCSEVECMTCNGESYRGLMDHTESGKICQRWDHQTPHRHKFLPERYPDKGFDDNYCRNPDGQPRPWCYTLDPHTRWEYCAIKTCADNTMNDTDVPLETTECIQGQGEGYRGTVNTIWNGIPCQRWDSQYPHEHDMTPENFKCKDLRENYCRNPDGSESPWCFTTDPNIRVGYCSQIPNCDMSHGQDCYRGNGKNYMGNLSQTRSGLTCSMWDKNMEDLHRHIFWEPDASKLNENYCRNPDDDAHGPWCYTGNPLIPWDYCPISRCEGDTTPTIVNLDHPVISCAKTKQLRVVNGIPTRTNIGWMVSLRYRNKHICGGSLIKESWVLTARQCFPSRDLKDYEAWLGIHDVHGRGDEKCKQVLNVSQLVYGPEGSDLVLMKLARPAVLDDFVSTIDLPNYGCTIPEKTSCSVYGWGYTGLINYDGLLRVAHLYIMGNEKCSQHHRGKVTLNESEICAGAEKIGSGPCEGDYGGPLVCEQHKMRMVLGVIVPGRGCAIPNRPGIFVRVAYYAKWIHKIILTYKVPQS
Description: HGF dimerization was assessed using PAGE followed by silver staining (Kawas et al., 2011). Human HGF at a concentration of 0.08 ng/μl with or without 6-AH analogs was incubated with heparin at a final concentration of 5 μg/ml. Loading buffer was then added to each sample and the mixture separated by native PAGE using gradient Criterion XT precast gels (4-12% Bis-Tris; Biorad Laboratories, Hercules, Calif.). Next the gel was silver stained for the detection of the HGF monomers and dimers. Bands were quantitated from digital images using a UVP phosphoimager (Upland, Calif.).

[5] = Toxicity observation during Dihexa studies; type: in vivo; conditions: studies lasting as long as 96 days
[6] = system: Dissociated hippocampal neurons; assay: Neuroprotection from oxidative stress (H2O2); type: cell-based; conditions: 100 μM H2O2 24 hrs +/−HGF 5 ng/ml; Dihexa 10^−10 M and 10^−8M
Description: FIG. 40. […] Dissociated hippocampal neurons were treated with 100 μM H2O2 for 24 hrs+/−HGF at sub-threshold concentrations 5 ng/ml and or Dihexa at 2 different concentrations 10^−10 M and 10^−8M. (*p<0.05,**p<0.01).

Blood stability studies = conditions: not shown
[7] = 0.5 mg/kg ip, started two weeks after lesion

With “HGF: Hepatocyte growth factor, recombinant, purchased from R&D Systems” the “Percent correlation of spines to Synapsin” value (hippocampal neurons) was 98% and the “Mean number of spines per 50 μm dendrite length” value (hippocampal neurons; 5 days) was 33 spines per 50 μm dendrite length.
In the case of `CCCCCC(=O)N[C@@H](Cc1ccc(O)cc1)C(=O)N[C@H](C(=O)NCCCCCC(N)=O)[C@@H](C)CC` [Dihexa, N-hexanoic-Tyr-Ile-(6)-aminohexanoic amide] (Hexanoyl-Tyr-Ile-[Ahx]-NH2), the “Tyrosine hydroxylase staining in the substantia nigra” value (6-OHDA lesioned rats; 0.5 mg/kg ip for 34 days / six weeks) is reported as “dramatic restoration of tyrosine hydroxylase (TH) staining; also recorded: completely restored the tyrosine hydroxylase staining in the SN”, the “Gait analysis, stride length” value (6-OHDA lesioned rats; [7]) is reported as “recovery of normal motor function; also recorded: completely restored the normal stride length” and the “Rope hang test performance” value (6-OHDA lesioned rats; [7]) is reported as “completely restores performance in the rope hang test; also recorded: completely restored the performance of the treated animals on the rope hang test”. For the same compound, the “Recovery of SN TH staining” value (6-OHDA lesioned rats; three months of Dihexa treatment) was about 100%, the “Water maze latency to find the pedestal: reversal of scopolamine deficits” value (shortened to “Water maze latency to find the pedestal”) (scopolamine treated rats; Dihexa ICV high dose (100 μmoles, 100 pmoles elsewhere in the source), 5 trials/day, 8 days) was “reversed scopolamine-dependent learning deficits; also recorded: completely overcome the scopolamine deficits” and the “Water maze latency to find the pedestal” value (scopolamine treated rats; Dihexa ICV low dose 10 μmoles) was “not 10 μmoles reversed scopolamine-dependent learning deficits”. For the same compound, the “Water maze latency to find the pedestal” value (scopolamine treated rats; Dihexa IP 0.5 mg/kg (high dose)) was “completely reverse the deficit seen with scopolamine”, the “Water maze latency to find the pedestal” value (scopolamine treated rats; Dihexa orally 2 mg/kg/day (high dose), 2 mg/kg/day) was “no different than controls; also recorded: completely overcome the scopolamine deficits; also recorded: completely reverse the deficit seen with scopolamine; also recorded: completely reverse the deficit produced by scopolamine” and the “HGF-dependent MDCK cell scattering” value (MDCK cells) was “stimulate MDCK cell scattering; also recorded: markedly stimulates cell scattering even at picomolar affinities”. The “HGF-dependent MDCK cell scattering” value (MDCK cells; listed as N-hexanoyl-Tyr-Ile-(6) aminohexamide) was “spectacularly augment HGF-dependent MDCK cell scattering”, the “Phase I metabolism” value [1] was “resistant to phase I metabolism; also recorded: undergoes little phase I metabolism” and the “Elimination (circulating) half-life t1/2” value ([2]; IV 10 mg/kg, adult male Sprague Dawley rats, non-compartmental analysis, 10 mg/kg) was > 12 days and 12.68 days. For the same compound, the Excretion ([2]; urine) was “excreted intact in the urine”, the “Mean latency to find the pedestal, day one” value (rats) was 115.2 s and the “Mean latency to find the pedestal, final day (day 8)” value (rats) was 62.3 s. For the same compound, the “Mean latency to find the pedestal, fourth day” value (rats) was 63.0 s, the “Protection of neurons from growth factor deprivation” value [3] was “protects neurons from growth factor deprivation” and the Long-term potentiation [4] was “enhances LTP; also recorded: augmented LTP”. For the same compound, the HGF dimerization (human HGF) was “blocks HGF dimerization”, the Overt toxicity [5] was “no overt toxicity” and the “Protection of neurons from oxidative stress” value [6] was “protects neurons from oxidative stress”. The “Time stable in the blood” value (Blood stability studies) was “over 5 hours”.
